These are literature values, as cited in patent US20250032494A1, “A COMBINATION TREATMENT FOR CANCER” (My Personal Therapeutics LTD, priority 2021, published 2025).

Each structure is given as a SMILES string.

The conditions of data set [1]: patients; with and without co-administration of DMARDs.
Data set [2] deals with tumors with the BRAF V600 mutation. The settings on record: both in vitro and in vivo.
For data set [3] the following is noted: patients; versus cytotoxic active controls dacarbazine or paclitaxel.

Turning to `CCOc1cc([C@@H](CS(C)(=O)=O)N2C(=O)c3cccc(NC(C)=O)c3C2=O)ccc1OC` [Apremilast], in data set [1], the improvement over placebo entry was “statistically significant improvement over placebo”. For `CC(=O)Nc1cccc(-n2c(=O)n(C3CC3)c(=O)c3c(Nc4ccc(I)cc4F)n(C)c(=O)c(C)c32)c1` [Trametinib], in data set [2], the “cell growth of tumors with the BRAF V600 mutation” value is given as “inhibits cell growth”. Further, the progression-free survival result in data set [3] is given as “statistically significant increase in progression-free survival”.
